In US6204293A, “Inhibitors of protein isoprenyl transferases” (University of Pittsburgh, priority 1998, dated 2001):
Structures can show the parent of a compound that is named as a salt.

biological target: T1, Rat brain protein farnesyltransferase (Rattus norvegicus, UniProt Q02293+Q04631); test: % inhibition of farnesylation, scintillation proximity assay with biotin-K Ras B fragment; assay type: biochemical; details: Table 1; 1 × 10^-5 M
T1 construct: Rat brain protein farnesyltransferase activity is measured; from tissue; host or cells: rat brain
T1 sequence (Q02293 whole entry, the tested form may be a part, one chain of several): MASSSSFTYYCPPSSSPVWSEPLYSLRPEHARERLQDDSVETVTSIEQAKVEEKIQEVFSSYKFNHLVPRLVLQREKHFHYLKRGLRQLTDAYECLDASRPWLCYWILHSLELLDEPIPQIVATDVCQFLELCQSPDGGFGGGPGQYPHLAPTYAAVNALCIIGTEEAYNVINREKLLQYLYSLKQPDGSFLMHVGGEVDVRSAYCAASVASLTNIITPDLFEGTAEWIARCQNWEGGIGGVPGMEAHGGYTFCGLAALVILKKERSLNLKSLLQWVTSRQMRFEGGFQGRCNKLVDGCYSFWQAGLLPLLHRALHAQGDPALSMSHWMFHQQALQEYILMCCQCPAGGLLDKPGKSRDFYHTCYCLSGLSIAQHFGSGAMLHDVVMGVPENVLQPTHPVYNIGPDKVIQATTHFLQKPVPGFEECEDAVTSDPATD
How it was run: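 Rat brain enzyme, purified through three steps, in a scintillation proximity assay kit with biotin-K Ras B fragment substrate at 0.1 mM final. Value is % inhibition of farnesylation.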

Row | % inhibition at 1 × 10^-5 M | Compound
1 | > 50% | CSCC[C@H](NC(=O)c1ccc(NC(=O)[C@@H]2C[C@@H](O)CN2)cc1-c1ccccc1)C(=O)O [Example 952]

same assay, conditions: Table 2; 1 × 10^-6 M

Row | % inhibition at 1 × 10^-6 M | Compound
2 | 69% | CSCC[C@H](NC(=O)c1ccc(CNCc2ccccc2)cc1-c1ccccc1)C(=O)O.Cl [Example 936]
3 | 26% | CSCC[C@H](NC(=O)c1ccc(NC(=O)OCCCl)cc1-c1ccccc1)C(=O)O [Example 979]
4 | 64% | CSCC[C@H](NC(=O)c1ccc(CN(C)C(C)(C)Cc2ccccc2)cc1-c1ccccc1C)C(=O)O [Example 982]
5 | 92% | CSCC[C@H](NC(=O)c1ccc(CN2CCC(OCc3ccccc3)C2)cc1-c1ccccc1C)C(=O)O (some centres unmarked) [Example 988]
6 | 88% | CSCC[C@H](NC(=O)c1ccc(CN2CCCC(OCc3ccccc3)C2)cc1-c1ccccc1C)C(=O)O (some centres unmarked) [Example 989]

same assay, conditions: Table 3; 1 × 10^-7 M

Row | % inhibition at 1 × 10^-7 M | Compound
7 | 81% | CCCC(CCC)NOCc1ccc(C(=O)N[C@@H](CCSC)C(=O)O)c(-c2ccccc2C)c1 [Example 929]
8 | 80% | CCSCC(CC1CCCCC1)N(Cc1ccc(C(=O)N[C@@H](CCSC)C(=O)O)c(-c2ccccc2C)c1)CC(C)C (some centres unmarked) [Example 945]
9 | 79% | CCSC[C@H](CC1CCCCC1)N(Cc1ccc(C(=O)N[C@@H](CCSC)C(=O)O)c(-c2ccccc2C)c1)C(C)=O [Example 947]
10 | 75% | CCSC[C@H](CC1CCCCC1)N(Cc1ccc(C(=O)N[C@@H](CCSC)C(=O)O)c(-c2ccccc2C)c1)C(=O)OC(C)(C)C [Example 948]
11 | 57% | CCSC[C@H](CC1CCCCC1)N(Cc1ccc(C(=O)N[C@@H](CCSC)C(=O)O)c(-c2ccccc2C)c1)C(=O)c1ccccc1 [Example 949]
12 | 71% | CCCCS(=O)(=O)N(Cc1ccc(C(=O)N[C@@H](CCSC)C(=O)O)c(-c2ccccc2C)c1)[C@H](CSCC)CC1CCCCC1 [Example 950]
13 | 71% | CCSC[C@H](CC1CCCCC1)N(Cc1ccc(C(=O)N[C@@H](CCSC)C(=O)O)c(-c2ccccc2C)c1)S(=O)(=O)c1ccccc1 [Example 951]
14 | > 50% | CSCC[C@H](NC(=O)c1ccc(NC[C@@H]2C[C@H](S)CN2)cc1-c1ccccc1)C(=O)O [Example 959]
15 | 84% | CSCC[C@H](NC(=O)c1ccc(CN2CCCC(OCC3CCCCC3)C2)cc1-c1ccccc1C)C(=O)O (some centres unmarked) [Example 990]
16 | 90% | CSCC[C@H](NC(=O)c1ccc(CN2CCC[C@@H]2COCc2ccccc2)cc1-c1ccccc1C)C(=O)O [Example 993]

same assay, conditions: Table 4; 1 × 10^-8 M

Row | % inhibition at 1 × 10^-8 M | Compound
17 | 74% | CCCCS(=O)(=O)N(CCCc1ccccc1)Cc1ccc(C(=O)N[C@@H](CCSC)C(=O)O)c(-c2ccccc2C)c1 [Example 927]
18 | 84% | CCCCN(CCc1ccccc1)Cc1ccc(C(=O)N[C@@H](CCSC)C(=O)O)c(-c2ccccc2C)c1 [Example 928]
19 | 88% | CCSC[C@H](CC1CCCCC1)N(C)Cc1ccc(C(=O)N[C@@H](CCSC)C(=O)O)c(-c2ccccc2C)c1 [Example 944]
20 | 52% | CCSC[C@H](CC1CCCCC1)N(C=O)Cc1ccc(C(=O)N[C@@H](CCSC)C(=O)O)c(-c2ccccc2C)c1 [Example 946]
21 | > 50% | CSCC[C@H](NC(=O)c1ccc(NC[C@H]2NCC[C@H]2S)cc1-c1ccccc1)C(=O)O [Example 960]
22 | 95% | CSCC[C@H](NC(=O)c1ccc(CN(CCC2CCCCC2)Cc2cncs2)cc1-c1ccccc1C)C(=O)O [Example 986]
23 | 69% | CSCC[C@H](NC(=O)c1ccc(CN2CCC[C@H]2COc2ccccc2)cc1-c1ccccc1C)C(=O)O [Example 991]
24 | 93% | CSCC[C@H](NC(=O)c1ccc(CN2CCC[C@H]2COCC2CCCCC2)cc1-c1ccccc1C)C(=O)O [Example 992]
25 | 92% | CCSC[C@H](CCc1ccccc1)NCc1ccc(C(=O)N[C@@H](CCSC)C(=O)O)c(-c2ccccc2C)c1 [Example 995]
26 | 80% | CCCCS(=O)(=O)N(Cc1ccc(C(=O)N[C@@H](CCSC)C(=O)O)c(-c2ccccc2C)c1)CC1CCCCC1 [Example 996]

same assay, conditions: read-out: % inhibition at 0.1 μM (*); Table 6; * footnote 0.1 μM (title: 0.1 mM)

Row | inhibition at 0.1 µM | Compound
27 | 90% | CSCC[C@H](NC(=O)c1ccc(COCc2ccccc2CO)cc1-c1ccccc1C)C(=O)O [Example 1043, N-[4-(2-hydroxymethylbenzyloxymethyl)-2-(2-methylphenyl)benzoyl]methionine,lithium salt]
28 | 76% | CSCC[C@H](NC(=O)c1ccc(COCc2cccc(CO)c2)cc1-c1ccccc1C)C(=O)O [Example 1044, N-[4-(3-hydroxymethylbenzyloxymethyl)-2-(2-methylphenyl)benzoyl]methionine,lithium salt]

same assay, conditions: read-out: % inhibition at 1 × 10^-6 M; Table 2; 1 × 10^-6 M

Row | inhibition at 1 µM | Compound
29 | 78% | CSCC[C@H](NC(=O)c1cc(Cc2ccccc2)c(COCc2ccccc2)cc1-c1ccccc1C)C(=O)O [Example 923, N-[5-Benzyl-4-benzyloxymethyl-2-(2-methylphenyl)benzoyl]methionine]
30 | 77% | CSCC[C@H](NC(=O)c1cc(Cc2ccccc2)c(COCc2ccco2)cc1-c1ccccc1C)C(=O)O [Example 924]
31 | 87% | CSCC[C@H](NC(=O)c1cc(Cc2ccccc2)c(COCCCc2ccccc2)cc1-c1ccccc1C)C(=O)O [Example 925]
32 | 95% | COc1ccc(CCOCc2ccc(C(=O)N[C@@H](CCSC)C(=O)O)c(-c3ccccc3C)c2)cc1 [Example 937, N-[4-(2-(4-methoxyphenyl)ethoxymethyl)-2-(2-methylphenylbenzoyl]methioninelithium salt]
33 | 93% | CSCC[C@H](NC(=O)c1ccc(COC2CCN(Cc3ccccc3)C2)cc1-c1ccccc1C)C(=O)O (some centres unmarked) [Example 987, N-[4-(1-benzylpyrrolidin-3-oxymethyl)-2-(2-methylphenyl)benzoyl]methionine]

same assay, conditions: read-out: % inhibition at 1 × 10^-7 M

Row | Compound | inhibition at 0.1 µM
34 | COc1ccccc1COCc1ccc(C(=O)N[C@@H](CCSC)C(=O)O)c(-c2ccccc2C)c1 [Example 931, N-[4-(2-methoxybenzyloxymethyl)-2-(2-methylphenyl)benzoyl]methionine lithium salt] | 98%
35 | CSCC[C@H](NC(=O)c1ccc(COCc2ccc(Cl)cc2)cc1-c1ccccc1C)C(=O)O [Example 933, N-[4-(4-chlorobenzyloxymethyl)-2-(2-methylphenyl)benzoyl]methionine lithium salt] | 91%
36 | COc1ccc(COCc2ccc(C(=O)N[C@@H](CCSC)C(=O)O)c(-c3ccccc3C)c2)cc1 [Example 935, N-[4-(4-methoxybenzyloxymethyl)-2-(2-methylphenyl)benzoyl]methionine lithium salt] | 72%
37 | CSCC[C@H](NC(=O)c1ccc(COCc2ccc(C(C)C)cc2)cc1-c1ccccc1C)C(=O)O [Example 940, N-[4-(4-isopropylbenzyloxymethyl)-2-(2-methylphenyl)benzoyl]methionine lithium salt] | 92%

same assay, conditions: read-out: % inhibition at 1 × 10^-7 M; Table 3; 1 × 10^-7 M

Row | inhibition at 0.1 µM | Compound
38 | 90% | CSCC[C@H](NC(=O)c1ccc(COCc2cccc(N(C)C)c2)cc1-c1ccccc1C)C(=O)O [Example 941, N-[4-(3-N,N-dimethylaminobenzyloxymethyl)-2-(2-methylphenyl)benzoyl]methionine lithium salt]

same assay, conditions: read-out: % inhibition at 1 × 10^-8 M

Row | Compound | inhibition at 0.01 µM
39 | CSCC[C@H](NC(=O)c1ccc(COCc2ccccc2Cl)cc1-c1ccccc1C)C(=O)O [Example 930, N-[4-(2-chlorobenzyloxymethyl)-2-(2-methylphenyl)benzoyl]methionine lithium salt] | 66%
40 | COc1cccc(COCc2ccc(C(=O)N[C@@H](CCSC)C(=O)O)c(-c3ccccc3C)c2)c1 [Example 932, N-[4-(3-methoxybenzyloxymethyl)-2-(2-methylphenyl)benzoyl]methionine lithium salt] | 60%
41 | CSCC[C@H](NC(=O)c1ccc(COCc2cccc(Cl)c2)cc1-c1ccccc1C)C(=O)O [Example 934, N-[4-(3-chlorobenzyloxymethyl)-2-(2-methylphenyl)benzoyl]methionine lithium salt] | 71%
42 | CSCC[C@H](NC(=O)c1ccc(COCc2ccccc2C(C)C)cc1-c1ccccc1C)C(=O)O [Example 938, N-[4-(2-isopropylbenzyloxymethyl)-2-(2-methylphenyl)benzoyl]methionine lithium salt] | 61%
43 | CSCC[C@H](NC(=O)c1ccc(COCc2cccc(C(C)C)c2)cc1-c1ccccc1C)C(=O)O [Example 939, N-[4-(3-isopropylbenzyloxymethyl)-2-(2-methylphenyl)benzoyl]methionine lithium salt] | 72%
44 | CCCCC(CCCC)OCc1ccc(C(=O)N[C@@H](CCSC)C(=O)O)c(-c2ccccc2C)c1 [Example 942, N-[4-(nonan-5-yloxymethyl)-2-(2-methylphenyl)benzoyl]methionine lithium salt] | 58%

same assay, conditions: read-out: % inhibition at 1 × 10^-8 M; Table 4; 1 × 10^-8 M

Row | inhibition at 0.01 µM | Compound
45 | 79% | CCCCC(Cc1ccccc1Cl)OCc1ccc(C(=O)N[C@@H](CCSC)C(=O)O)c(-c2ccccc2C)c1 (some centres unmarked) [Example 943, N-[4-(1-(2-chlorophenyl)hexan-2-yloxymethyl)-2-(2-methylphenyl)benzoyl]methioninelithium salt]
46 | 89% | CCCCC(OCc1ccc(C(=O)N[C@@H](CCSC)C(=O)O)c(-c2ccccc2C)c1)c1cncs1 (some centres unmarked) [Example 985]
47 | 83% | CSCC[C@H](NC(=O)c1ccc(CO[C@H](CSC(C)(C)C)Cc2ccccc2)cc1-c1ccccc1C)C(=O)O [Example 994, N-[4-(1-t-butylthio-3-phenylprop-2-oxymethyl)-2-(2-methylphenyl)benzoyl]methionine]
